Experimental data reported in patent publication US20250333424A1, “ANTIVIRAL COMPOUNDS” (Gilead Sciences, Inc., priority 2024, published 2025).

Each compound was assayed on monocytic THP1 cells infected with HIV VSV-G pseudotyped GFP-NEF reporter virus (assay: cells). Conditions: Human immunodeficiency virus 1, THP-1, 24 h.
Format: cell-based
`Cc1cc(/C=C/C#N)cc(C)c1Oc1nc(NC23CC(C#N)(C2)C3)nc2nc(Nc3cccnc3)[nH]c12` [Compound 69, (E)-3-((6-(4-(2-cyanovinyl)-2,6-dimethylphenoxy)-8-(pyridin-3-ylamino)-7H-purin-2-yl)amino)bicyclo[1.1.1]pentane-1-carbonitrile] gave an EC50 of 496 nM. Compound `Cc1cc(/C=C/C#N)cc(C)c1Oc1nc(NC23CC(C#N)(C2)C3)nc2c1C1(C)O[C@@H](C)CCN1C2=O` (stereo partly drawn) [Example 241, 3-(((6S)-4-(4-((E)-2-cyanovinyl)-2,6-dimethylphenoxy)-4b,6-dimethyl-10-oxo-4b,7,8,10-tetrahydro-6H-pyrimido[5′,4′:3,4]pyrrolo[2,1-b][1,3]oxazin-2-yl)amino)bicyclo[1.1.1]pentane-1-carbonitrile] has an EC50 of 34.8 nM. Compound `Cc1cc(/C=C/C#N)cc(C)c1Oc1nc(NC23CC(C#N)(C2)C3)nc2nc(-c3cn[nH]c3)[nH]c12` [Compound 66, (E)-3-((6-(4-(2-cyanovinyl)-2,6-dimethylphenoxy)-8-(1H-pyrazol-4-yl)-7H-purin-2-yl)amino)bicyclo[1.1.1]pentane-1-carbonitrile] has an EC50 of 298 nM. Work on `C=Cc1c2c(Oc3c(C)cc(/C=C/C#N)cc3C)nc(NC34CC(C#N)(C3)C4)nc2nn1C` [Compound 88, (E)-3-((4-(4-(2-cyanovinyl)-2,6-dimethylphenoxy)-2-methyl-3-vinyl-2H-pyrazolo[3,4-d]pyrimidin-6-yl)amino)bicyclo[1.1.1]pentane-1-carbonitrile] yielded an EC50 of 23.4 nM. Compound `Cc1cc(/C=C/C#N)cc(C)c1Oc1nc(NC23CC(C#N)(C2)C3)nc2nn(-c3ccn(C)n3)cc12` [Example 231, (E)-3-((4-(4-(2-cyanovinyl)-2,6-dimethylphenoxy)-2-(1-methyl-1H-pyrazol-3-yl)-2H-pyrazolo[3,4-d]pyrimidin-6-yl)amino)bicyclo[1.1.1]pentane-1-carbonitrile] has an EC50 of 31.1 nM. `Cc1cc(/C=C/C#N)cc(C)c1Oc1nc(NC23CC(C#N)(C2)C3)nc2ccn(C)c12` [Example 250, 3-[[4-[4-[(E)-2-cyanovinyl]-2,6-dimethyl-phenoxy]-5-methyl-pyrrolo[3,2-d]pyrimidin-2-yl]amino]bicyclo[1.1.1]pentane-1-carbonitrile] gave an EC50 of 64 nM. With `Cc1cc(/C=C/C#N)cc(C)c1Oc1nc(NC23CC(C#N)(C2)C3(F)F)nc2nc3n(c12)CCCO3` [Compound 188, (E)-3-((4-(4-(2-cyanovinyl)-2,6-dimethylphenoxy)-7,8-dihydro-6H-[1,3]oxazino[2,3-f]purin-2-yl)amino)-2,2-difluorobicyclo[1.1.1]pentane-1-carbonitrile] the EC50 was 70.4 nM. `Cc1cc(/C=C/C#N)cc(C)c1Oc1nc(NC23CC(C#N)(C2)C3)nc2[nH]nc(C3CC3)c12` [Compound 104, (E)-3-((4-(4-(2-cyanovinyl)-2,6-dimethylphenoxy)-3-cyclopropyl-1H-pyrazolo[3,4-d]pyrimidin-6-yl)amino)bicyclo[1.1.1]pentane-1-carbonitrile] was tested, and the EC50 was 141 nM. For `Cc1cc(/C=C/C#N)cc(C)c1Oc1nc(NC23CC(C#N)(C2)C3)nc2c1C1(C)OCC3(COC3)CN1C2=O` (stereo not shown) [Example 199, (E)-3-((4′-(4-(2-cyanovinyl)-2,6-dimethylphenoxy)-4b′-methyl-10′-oxo-4b′,10′-dihydro-6′H,8′H-spiro[oxetane-3,7′-pyrimido[5′,4′:3,4]pyrrolo[2,1-b][1,3]oxazin]-2′-yl)amino)bicyclo[1.1.1]pentane-1-carbonitrile], the EC50 was 49 nM. `Cc1cc(/C=C/C#N)cc(C)c1Oc1nc(NC23CC(C#N)(C2)C3)nc2nc(C(F)F)n(C(F)F)c12` [Compound 178, (E)-3-((6-(4-(2-cyanovinyl)-2,6-dimethylphenoxy)-7,8-bis(difluoromethyl)-7H-purin-2-yl)amino)bicyclo[1.1.1]pentane-1-carbonitrile] was tested, and the EC50 was 25.7 nM. For `COCCn1cc(N2C(=O)c3nc(NC45CC(C#N)(C4)C5)nc(Oc4c(C)cc(/C=C/C#N)cc4C)c3C2C)cn1` (stereo not shown) [Example 219, (E)-3-((4-(4-(2-cyanovinyl)-2,6-dimethylphenoxy)-6-(1-(2-methoxyethyl)-1H-pyrazol-4-yl)-5-methyl-7-oxo-6,7-dihydro-5H-pyrrolo[3,4-d]pyrimidin-2-yl)amino)bicyclo[1.1.1]pentane-1-carbonitrile], the EC50 was 40.7 nM. With `Cc1cc(/C=C/C#N)cc(C)c1Oc1nc(NC23CC(C#N)(C2)C3)nc2c1[C@@H]1OCCCN1C2=O` [Compound 279, (S,E)-3-((4-(4-(2-cyanovinyl)-2,6-dimethylphenoxy)-10-oxo-4b,7,8,10-tetrahydro-6H-pyrimido[5′,4′:3,4]pyrrolo[2,1-b][1,3]oxazin-2-yl)amino)bicyclo[1.1.1]pentane-1-carbonitrile] the EC50 was 57.2 nM. `Cc1cc(/C=C/C#N)cc(C)c1Oc1nc(NC23CC(C#N)(C2)C3)nc2c1[C@@]1(C)O[C@@H]3CC[C@@H]3N1C2=O` (single isomer, unassigned) [Compound 283] showed an EC50 of 44.8 nM. `Cc1cc(/C=C/C#N)cc(C)c1Oc1nc(NC23CC(C#N)(C2)C3)nc2c1[C@]1(C)O[C@@H](C)CN1C2=O` (single isomer, unassigned) [Example 248] gave an EC50 of 121 nM. Compound `Cc1cc(/C=C/C#N)cc(C)c1Oc1nc(NC23CC(C#N)(C2)C3)nc2c1C1(C)O[C@@H](CO)CN1C2=O` (stereo partly drawn) [Compound 264, 3-(((6R)-4-(4-((E)-2-cyanovinyl)-2,6-dimethylphenoxy)-6-(hydroxymethyl)-4b-methyl-9-oxo-4b,6,7,9-tetrahydrooxazolo[3′,2′:1,5]pyrrolo[3,4-d]pyrimidin-2-yl)amino)bicyclo[1.1.1]pentane-1-carbonitrile] has an EC50 of 118 nM. For `Cc1cc(/C=C/C#N)cc(C)c1Oc1nc(NC23CC(C#N)(C2)C3)nc2nc3n(c12)CC1(CC1)CO3` [Compound 187, (E)-3-((4′-(4-(2-cyanovinyl)-2,6-dimethylphenoxy)-6′H,8′H-spiro[cyclopropane-1,7′-[1,3]oxazino[2,3-f]purin]-2′-yl)amino)bicyclo[1.1.1]pentane-1-carbonitrile], the EC50 was 36.5 nM. In the case of `CCN1C(=O)c2nc(NC34CC(C#N)(C3)C4)nc(Oc3c(C)cc(/C=C/C#N)cc3C)c2C1C` (stereo not shown) [Example 204, (E)-3-((4-(4-(2-cyanovinyl)-2,6-dimethylphenoxy)-6-ethyl-5-methyl-7-oxo-6,7-dihydro-5H-pyrrolo[3,4-d]pyrimidin-2-yl)amino)bicyclo[1.1.1]pentane-1-carbonitrile], the EC50 is reported as 23.4 nM. `Cc1cc(/C=C/C#N)cc(C)c1Oc1nc(NC23CC(C#N)(C2)C3)nc2[nH]nc(C(C)C)c12` [Compound 126, 3-[[4-[4-[(E)-2-cyanovinyl]-2,6-dimethyl-phenoxy]-3-isopropyl-1H-pyrazolo[3,4-d]pyrimidin-6-yl]amino]bicyclo[1.1.1]pentane-1-carbonitrile] showed an EC50 of 119 nM. For `CCn1cc(N2C(=O)c3nc(NC45CC(C#N)(C4)C5)nc(Oc4c(C)cc(/C=C/C#N)cc4C)c3C2C)cn1` (stereo not shown) [Example 218, (E)-3-((4-(4-(2-cyanovinyl)-2,6-dimethylphenoxy)-6-(1-ethyl-1H-pyrazol-4-yl)-5-methyl-7-oxo-6,7-dihydro-5H-pyrrolo[3,4-d]pyrimidin-2-yl)amino)bicyclo[1.1.1]pentane-1-carbonitrile], the EC50 was 47.3 nM. `Cc1cc(/C=C/C#N)cc(C)c1Oc1nc(NC23CC(C#N)(C2)C3)nc2c1C(C)(C)N(c1cnn(C)c1)C2=O` [Example 230, (E)-3-((4-(4-(2-cyanovinyl)-2,6-dimethylphenoxy)-5,5-dimethyl-6-(1-methyl-1H-pyrazol-4-yl)-7-oxo-6,7-dihydro-5H-pyrrolo[3,4-d]pyrimidin-2-yl)amino)bicyclo[1.1.1]pentane-1-carbonitrile] gave an EC50 of 116 nM. Compound `Cc1cc(/C=C/C#N)cc(C)c1Oc1nc(NC23CC(C#N)(C2)C3)nc2nc(C3CCCC3)[nH]c12` [Compound 53, (E)-3-((6-(4-(2-cyanovinyl)-2,6-dimethylphenoxy)-8-cyclopentyl-7H-purin-2-yl)amino)bicyclo[1.1.1]pentane-1-carbonitrile] has an EC50 of 233 nM. Work on `Cc1cc(/C=C/C#N)cc(C)c1Oc1nc(NC23CC(C#N)(C2)C3)nc2c1[C@H]1OC[C@H](F)CN1C2=O` (single isomer, unassigned) [Compound 281] yielded an EC50 of 74.2 nM. `Cc1cc(/C=C/C#N)cc(C)c1Oc1nc(NC23CC(C#N)(C2)C3)nc2c1[C@@H](C(F)(F)F)NC2=O` [Example 254, (S,E)-3-((4-(4-(2-cyanovinyl)-2,6-dimethylphenoxy)-7-oxo-5-(trifluoromethyl)-6,7-dihydro-5H-pyrrolo[3,4-d]pyrimidin-2-yl)amino)bicyclo[1.1.1]pentane-1-carbonitrile] gave an EC50 of 71.4 nM. Compound `Cc1cc(/C=C/C#N)c(C)c(C)c1Oc1nc(NC23CC(C#N)(C2)C3)nc2nn(C)cc12` [Compound 8, (E)-3-((4-(4-(2-cyanovinyl)-2,3,6-trimethylphenoxy)-2-methyl-2H-pyrazolo[3,4-d]pyrimidin-6-yl)amino)bicyclo[1.1.1]pentane-1-carbonitrile] has an EC50 of 44.6 nM. In the case of `CCOc1cc(/C=C/C#N)cc(Cl)c1Oc1nc(NC23CC(C#N)(C2)C3)nc2[nH]nc(C)c12` [Compound 3, (E)-3-((4-(2-chloro-4-(2-cyanovinyl)-6-ethoxyphenoxy)-3-methyl-11H-pyrazolo[3,4-d]pyrimidin-6-yl)amino)bicyclo[1.1.1]pentane-1-carbonitrile], the EC50 is reported as 29.6 nM. For `Cc1cc(/C=C/C#N)cc(C)c1Oc1nc(NC23CC(C#N)(C2)C3)nc2nc3n(c12)CCOC3` [Compound 195, (E)-3-((4-(4-(2-cyanovinyl)-2,6-dimethylphenoxy)-6,7-dihydro-9H-[1,4]oxazino[3,4-f]purin-2-yl)amino)bicyclo[1.1.1]pentane-1-carbonitrile], the EC50 was 37 nM. With `Cc1cc(/C=C/C#N)cc(C)c1Oc1nc(NC23CC(C#N)(C2)C3)nc2c1c(C)n[s+]2[O-]` (stereo not shown) [Compound 297, (E)-3-((4-(4-(2-cyanovinyl)-2,6-dimethylphenoxy)-3-methyl-1-oxidoisothiazolo[5,4-d]pyrimidin-6-yl)amino)bicyclo[1.1.1]pentane-1-carbonitrile] the EC50 was 159 nM. Work on `Cc1cc(/C=C/C#N)cc(C)c1Oc1nc(NC23CC(C#N)(C2)C3)nc2occ(C)c12` [Compound 300, (E)-3-((4-(4-(2-cyanovinyl)-2,6-dimethylphenoxy)-5-methylfuro[2,3-d]pyrimidin-2-yl)amino)bicyclo[1.1.1]pentane-1-carbonitrile] yielded an EC50 of 87.6 nM.
